Values quoted from earlier work as cited in US12251395B2, “RNAS for complement inhibition” (Apellis Pharmaceuticals, Inc., priority 2019, dated 2025).
Bridges are numbered along the chain shown (N, C = ends). [ ]: non-standard residue; d: D form. Trp(5-F) = N[C@@H](Cc1c[nH]c2ccc(F)cc12)C(=O)O; Trp(5-Me) = Cc1ccc2[nH]cc(C[C@H](N)C(=O)O)c2c1; Trp(6-F) = N[C@@H](Cc1c[nH]c2cc(F)ccc12)C(=O)O; Bpa = N[C@@H](Cc1ccc(C(=O)c2ccccc2)cc1)C(=O)O; 1Nal = N[C@@H](Cc1cccc2ccccc12)C(=O)O; 2Nal = N[C@@H](Cc1ccc2ccccc2c1)C(=O)O; Igl = N[C@H](C(=O)O)C1Cc2ccccc2C1

System: complement activation
Conditions: alternative pathway-mediated erythrocyte lysis assay (WO2004/026328); read-out: IC50 of compstatin

In the case of `CC[C@H](C)[C@H](N)C(=O)N[C@H]1CSSC[C@@H](C(=O)N[C@H](C(N)=O)[C@@H](C)O)NC(=O)[C@H](CCCN=C(N)N)NC(=O)[C@H](Cc2cnc[nH]2)NC(=O)[C@H](Cc2cnc[nH]2)NC(=O)CNC(=O)[C@H](Cc2c[nH]c3ccccc23)NC(=O)[C@H](CC(=O)O)NC(=O)[C@H](CCC(N)=O)NC(=O)[C@H](C(C)C)NC(=O)[C@H](C(C)C)NC1=O` [Compstatin, H-ICVVQDWGHHRCT-CONH2], the IC50 is listed as 12 µM.

System: complement activation
Conditions: relative to compstatin amidated at the C-terminus; published data

Compared with “Ac-ICV(1-Nal)QDWGAHRCT-COOH (Ac-ICV[1Nal]QDWGAHRCT-OH; disulfide 2-12 (inferred)) [Ac V4(1-Nal)/H9A -OH]”, “Ac-ICV(2-IgI)QDWGAHRCT-CONH2 (Ac-ICV[Igl]QDWGAHRCT-NH2; disulfide 2-12 (inferred)) [Ac-V42IgI/H9A]” is higher in “Activity over corn statin” value: 30xmore for the first, 39xmore for the second.

Compared with “Ac-ICV(2-IgI)QDWGAHRCT-COOH (Ac-ICV[Igl]QDWGAHRCT-OH; disulfide 2-12 (inferred)) [Ac-V42IgI/H9A -OH]”, “Ac-ICV(2-Nal)QDWGAHRCT-CONH2 (Ac-ICV[2Nal]QDWGAHRCT-NH2; disulfide 2-12 (inferred)) [Ac-V4(2-Nal)/H9A]” is higher in “Activity over corn statin” value: 37xmore for the first, 99xmore for the second.

Compared with “Ac-ICV(2-Nal)QDWGAHRCT-COOH (Ac-ICV[2Nal]QDWGAHRCT-OH; disulfide 2-12 (inferred)) [Ac V4(2-Nal)/H9A -OH]”, “Ac-ICV(5-methyl-W)QDWGAHRCT-CONH2 (Ac-ICV[Trp(5-Me)]QDWGAHRCT-NH2; disulfide 2-12 (inferred)) [Ac-V4(5-MeW)/H9A]” is higher in “Activity over corn statin” value: 38xmore for the first, 67xmore for the second.

First: Ac-ICV(5fW)QDWGAHRCT-CONH2 (Ac-ICV[Trp(5-F)]QDWGAHRCT-NH2; disulfide 2-12 (inferred)) [Ac-V4(5fW)/H9A]
Second: Ac-ICV(Bpa)QDWGAHRCT-CONH2 (Ac-ICV[Bpa]QDWGAHRCT-NH2; disulfide 2-12 (inferred)) [Ac-V4(Bpa)/H9A]
The “Activity over corn statin” value of the first is lower: 31xmore for the first, 86xmore for the second.

Going from “Ac-ICV(Bpa)QDWGAHRCT-COOH (Ac-ICV[Bpa]QDWGAHRCT-OH; disulfide 2-12 (inferred)) [Ac-V4(Bpa)/H9A -OH]” to “Ac-ICVWQD(5fW)GAHRCT-CONH2 (Ac-ICVWQD[Trp(5-F)]GAHRCT-NH2; disulfide 2-12 (inferred)) [Ac-V4W/W7(5fW)/H9A]”, the “Activity over corn statin” value rises from 49xmore to 121xmore.

Compared with “Ac-ICVWQDWGAHRCT-CONH2 (Ac-ICVWQDWGAHRCT-NH2; disulfide 2-12 (inferred)) [Ac-V4W/H9A]”, “Ac-ICVWQDWGAHRCdT-COOH [Ac-V4W/H9A/T13dT -OH]” is higher in “Activity over corn statin” value: 45xmore for the first, 55xmore for the second.

First: Ac-ICVYQDWGAHRCT-CONH2 [Ac-V4Y/H9A]
Second: Ac-ICWQDWGHHRCT-NH2 (cysteine pairing not given here) [Ac-compstatin]
The “Activity over corn statin” value of the first is higher: 14xmore for the first, 3xmore for the second.

Compared with “H-GICV(5fW)QD(5fW)GAHRCTN-COOH (H-GICV[Trp(5-F)]QD[Trp(5-F)]GAHRCTN-OH; disulfide 3-13 (inferred)) [G/V4(5f-W)/W7(5fW)/H9A+FN-OH]”, “H-GICV(6fW)QD(6fW)GAHRCTN-COOH (H-GICV[Trp(6-F)]QD[Trp(6-F)]GAHRCTN-OH; disulfide 3-13 (inferred)) [+G/V4(6fW)/W7(6fW)H9A+FN-OH]” is higher in “Activity over corn statin” value: 112xmore for the first, 126xmore for the second.
